Experimental data taken from PubChem BioAssay AID248 (DTP/NCI, 2004).
“And” between values parts separate entries of the source, which are not always exact repeats. Equal entries are not always repeated. Toxic doses and inconclusive results are not listed.

Test system: L1210 leukemia ip in BDF1 mice, survival T/C
Experiment: NCI In Vivo Anticancer Drug Screen. Data for tumor model L1210 Leukemia (intraperitoneal) in B6D2F1 (BDF1) mice
Conditions: endpoint: mean survival time, higher = longer survival
Summary of the method: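 Tumor was transplanted into mice, which were then dosed with test compound or vehicle alone. Survival was recorded for each group, and the treated figure was expressed relative to the control figure.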

[1] = dose: 50.0 mg/kg/injection, schedule: Q01DX009 (ip), vehicle: Klucel (hydroxypropylcellulose) (HPC)
[2] = dose: 75.0 mg/kg/injection, schedule: Q01DX009 (ip), vehicle: Klucel (hydroxypropylcellulose) (HPC)
[3] = dose: 200.0 mg/kg/injection, schedule: Q01DX009 (ip), vehicle: Klucel (hydroxypropylcellulose) (HPC)
[4] = dose: 100.0 mg/kg/injection, schedule: Q01DX001 (ip), vehicle: saline
[5] = dose: 200.0 mg/kg/injection, schedule: Q01DX001 (ip), vehicle: saline
[6] = dose: 400.0 mg/kg/injection, schedule: Q01DX001 (ip), vehicle: saline
[7] = dose: 100.0 mg/kg/injection, schedule: Q01DX009 (ip), vehicle: Klucel (hydroxypropylcellulose) (HPC)
[8] = dose: 100.0 mg/kg/injection, schedule: Q04DX003 (ip), vehicle: Klucel (hydroxypropylcellulose) (HPC)
[9] = dose: 200.0 mg/kg/injection, schedule: Q04DX003 (ip), vehicle: Klucel (hydroxypropylcellulose) (HPC)
[10] = dose: 400.0 mg/kg/injection, schedule: Q04DX003 (ip), vehicle: Klucel (hydroxypropylcellulose) (HPC)
[11] = dose: 400.0 mg/kg/injection, schedule: Q01DX009 (ip), vehicle: Klucel (hydroxypropylcellulose) (HPC)
[12] = dose: 100.0 mg/kg/injection, schedule: Q01DX009 (ip), vehicle: saline with Tween-80
[13] = dose: 200.0 mg/kg/injection, schedule: Q01DX009 (ip), vehicle: saline with Tween-80
[14] = dose: 400.0 mg/kg/injection, schedule: Q01DX009 (ip), vehicle: saline with Tween-80
[15] = dose: 50.0 mg/kg/injection, schedule: Q01DX009 (ip), vehicle: saline with Tween-80

CCN(C)N=Nc1cccnc1
T/C (dose: 10.0 mg/kg/injection, schedule: Q01DX009 (ip), vehicle: saline): 101 % of control
T/C (dose: 15.0 mg/kg/injection, schedule: Q01DX009 (ip), vehicle: saline): 107 % of control
T/C (dose: 22.0 mg/kg/injection, schedule: Q01DX009 (ip), vehicle: Klucel (hydroxypropylcellulose) (HPC)): 111 % of control
T/C (dose: 22.0 mg/kg/injection, schedule: Q01DX009 (ip), vehicle: saline with Tween-80): 110 % of control
T/C (dose: 22.0 mg/kg/injection, schedule: Q01DX009 (ip), vehicle: saline): 112 % of control
T/C (dose: 33.0 mg/kg/injection, schedule: Q01DX009 (ip), vehicle: Klucel (hydroxypropylcellulose) (HPC)): 108 % of control
T/C (dose: 33.0 mg/kg/injection, schedule: Q01DX009 (ip), vehicle: saline with Tween-80): 122 % of control
T/C (dose: 33.0 mg/kg/injection, schedule: Q01DX009 (ip), vehicle: saline): 152 % of control
T/C [1]: 108 % of control
T/C (dose: 50.0 mg/kg/injection, schedule: Q01DX009 (ip), vehicle: saline): 170 % of control
T/C [2]: 150 % of control
T/C (dose: 75.0 mg/kg/injection, schedule: Q01DX009 (ip), vehicle: saline with Tween-80): 122 % of control

O=C(Nc1ccc2c(c1)Cc1cccc(NC(=O)C(Cl)Cl)c1-2)C(Cl)Cl
T/C [1]: 95 % of control
T/C [3]: 89 % of control

CC(=O)N(O)CCCCCNC(=O)CCC(=O)N(O)CCCCCNC(=O)CCC(=O)N(O)CCCCCN
T/C (dose: 83.0 mg/kg/injection, schedule: Q03HX024 (ip), vehicle: water): 103 % of control
T/C (dose: 125.0 mg/kg/injection, schedule: Q03HX024 (ip), vehicle: water): 102 % of control
T/C (dose: 420.0 mg/kg/injection, schedule: Q03HX024 (ip), vehicle: clinical formulation): 102 % of control
T/C (dose: 420.0 mg/kg/injection, schedule: Q03HX024 (ip), vehicle: water): 95 % of control and 103 % of control

CCCCCNC(=S)Nc1ccccc1
T/C (dose: 38.0 mg/kg/injection, schedule: Q04DX003 (ip), vehicle: other): 98 % of control
T/C (dose: 75.0 mg/kg/injection, schedule: Q01DX001 (ip), vehicle: other): 98 % of control
T/C (dose: 75.0 mg/kg/injection, schedule: Q04DX003 (ip), vehicle: other): 102 % of control
T/C (dose: 150.0 mg/kg/injection, schedule: Q01DX001 (ip), vehicle: other): 112 % of control
T/C (dose: 150.0 mg/kg/injection, schedule: Q04DX003 (ip), vehicle: other): 96 % of control
T/C (dose: 300.0 mg/kg/injection, schedule: Q01DX001 (ip), vehicle: other): 110 % of control

Cc1c(Br)c(=O)[nH]c2c(C)cccc12
T/C [4]: 98 % of control
T/C [5]: 98 % of control
T/C [6]: 96 % of control

CCc1ccccc1NC(=O)Sc1ccccc1C
T/C [7]: 90 % of control
T/C [8]: 110 % of control
T/C [3]: 87 % of control
T/C [9]: 102 % of control
T/C [10]: 100 % of control

CCCCCC#CC(C)OC(=O)Nc1cccc2ccccc12 (centres undefined)
T/C (dose: 100.0 mg/kg/injection, schedule: Q01DX001 (ip), vehicle: saline with Tween-80): 96 % of control
T/C (dose: 200.0 mg/kg/injection, schedule: Q01DX001 (ip), vehicle: saline with Tween-80): 98 % of control
T/C (dose: 400.0 mg/kg/injection, schedule: Q01DX001 (ip), vehicle: saline with Tween-80): 86 % of control

C(=N\C(/N=C/c1ccccc1)c1ccccc1)/c1ccccc1
T/C [7]: 96 % of control
T/C [8]: 92 % of control
T/C [3]: 94 % of control
T/C [9]: 94 % of control
T/C [11]: 92 % of control
T/C [10]: 92 % of control

COc1cc2c(cc1OC(C)=O)C(OC(C)=O)CCCC2 (centres undefined)
T/C (dose: 5.0 mg/kg/injection, schedule: Q01DX001 (ip), vehicle: saline): 109 % of control
T/C (dose: 10.0 mg/kg/injection, schedule: Q01DX001 (ip), vehicle: saline): 109 % of control
T/C (dose: 20.0 mg/kg/injection, schedule: Q01DX001 (ip), vehicle: saline): 97 % of control
T/C (dose: 40.0 mg/kg/injection, schedule: Q01DX001 (ip), vehicle: saline): 105 % of control

CCOC(=O)/C(O)=C\c1cc(Cl)nnc1Cl
T/C (dose: 162.5 mg/kg/injection, schedule: Q04DX002 (ip), vehicle: Klucel (hydroxypropylcellulose) (HPC)): 100 % of control
T/C (dose: 325.0 mg/kg/injection, schedule: Q04DX002 (ip), vehicle: Klucel (hydroxypropylcellulose) (HPC)): 95 % of control

COc1ccc2cc(Br)ccc2c1
T/C [12]: 107 % of control
T/C [13]: 102 % of control
T/C [14]: 102 % of control

O=C(/C=C/c1ccccc1O)c1ccccc1
T/C [7]: 98 % of control
T/C [12]: 110 % of control
T/C [8]: 113 % of control
T/C (dose: 100.0 mg/kg/injection, schedule: Q04DX003 (ip), vehicle: saline with Tween-80): 94 % of control
T/C [3]: 100 % of control
T/C [13]: 101 % of control
T/C [9]: 113 % of control
T/C (dose: 200.0 mg/kg/injection, schedule: Q04DX003 (ip), vehicle: saline with Tween-80): 102 % of control
T/C [11]: 90 % of control
T/C [14]: 102 % of control
T/C [10]: 103 % of control
T/C (dose: 400.0 mg/kg/injection, schedule: Q04DX003 (ip), vehicle: saline with Tween-80): 96 % of control

COc1nc(N)c(C#N)cc1C#N
T/C (dose: 12.5 mg/kg/injection, schedule: Q01DX009 (ip), vehicle: Klucel (hydroxypropylcellulose) (HPC)): 96 % of control
T/C (dose: 25.0 mg/kg/injection, schedule: Q01DX009 (ip), vehicle: Klucel (hydroxypropylcellulose) (HPC)): 102 % of control
T/C [1]: 93 % of control
T/C [8]: 92 % of control

Nc1nc2ncnc(N)c2nc1-c1ccc(N(CCCl)CCCl)cc1
T/C [4]: 98 % of control
T/C [5]: 95 % of control
T/C [6]: 102 % of control

O=C1OC(c2c3ccccc3cc3ccccc23)c2ccccc21 (centres undefined)
T/C [15]: 98 % of control
T/C [12]: 98 % of control
T/C [13]: 95 % of control

O=S(=O)(CS(=O)(=O)c1ccccc1)c1ccccc1
T/C [2]: 102 % of control
T/C (dose: 150.0 mg/kg/injection, schedule: Q01DX009 (ip), vehicle: Klucel (hydroxypropylcellulose) (HPC)): 98 % of control
T/C (dose: 300.0 mg/kg/injection, schedule: Q01DX009 (ip), vehicle: Klucel (hydroxypropylcellulose) (HPC)): 95 % of control

ClCC[n+]1ccccc1
T/C (dose: 75.0 mg/kg/injection, schedule: Q01DX001 (ip), vehicle: saline): 104 % of control
T/C (dose: 150.0 mg/kg/injection, schedule: Q01DX001 (ip), vehicle: saline): 101 % of control

Cn1ncc2c(NCc3ccccc3Cl)ncnc21
T/C (dose: 25.0 mg/kg/injection, schedule: Q01DX009 (ip), vehicle: saline with Tween-80): 102 % of control
T/C [15]: 108 % of control
T/C [12]: 124 % of control
T/C (dose: 200.0 mg/kg/injection, schedule: Q01DX009 (ip), vehicle: other): 93 % of control

CCOC(=O)CNc1ccc(Cl)c(C)c1
T/C (dose: 100.0 mg/kg/injection, schedule: Q04DX002 (ip), vehicle: Klucel (hydroxypropylcellulose) (HPC)): 111 % of control
T/C (dose: 200.0 mg/kg/injection, schedule: Q04DX002 (ip), vehicle: Klucel (hydroxypropylcellulose) (HPC)): 107 % of control
T/C (dose: 400.0 mg/kg/injection, schedule: Q04DX002 (ip), vehicle: Klucel (hydroxypropylcellulose) (HPC)): 111 % of control

COc1cc2c(cc1OC)C(Cc1ccc(OC(=O)O)cc1)=NCC2
T/C (dose: 100.0 mg/kg/injection, schedule: Q01DX001 (ip), vehicle: carboxymethylcellulose (CMC)): 102 % of control
T/C (dose: 200.0 mg/kg/injection, schedule: Q01DX001 (ip), vehicle: carboxymethylcellulose (CMC)): 102 % of control

O=C(O)COc1cc(Cl)cc(Cl)c1
T/C (dose: 50.0 mg/kg/injection, schedule: Q04DX002 (ip), vehicle: other): 91 % of control
T/C (dose: 100.0 mg/kg/injection, schedule: Q04DX002 (ip), vehicle: other): 94 % of control
T/C (dose: 200.0 mg/kg/injection, schedule: Q04DX002 (ip), vehicle: other): 108 % of control
